Assay results from patent US6831075B2, “Heterocyclic substituted pyrazolones” (Cephalon, Inc., priority 1999, dated 2004).

How the values were obtained:
Type in all cases: biochemical
[1] = target: T1, recombinant human baculoviral VEGFR2 cyctoplasmic domain (Homo sapiens, UniProt P35968); assay: VEGFR2 kinase inhibition assay (ELISA-based, time-resolved fluorescence); settings: 1 uM compound, 30 μM ATP; for inhibition at 1 µM: read-out: VEGFR-2 kinase % inhibition @ 1 uM
T1 construct: recombinant human baculoviral VEGFR2 cyctoplasmic domain; host or cells: baculovirus expression system
T1 sequence (P35968 786-1356 limits assumed): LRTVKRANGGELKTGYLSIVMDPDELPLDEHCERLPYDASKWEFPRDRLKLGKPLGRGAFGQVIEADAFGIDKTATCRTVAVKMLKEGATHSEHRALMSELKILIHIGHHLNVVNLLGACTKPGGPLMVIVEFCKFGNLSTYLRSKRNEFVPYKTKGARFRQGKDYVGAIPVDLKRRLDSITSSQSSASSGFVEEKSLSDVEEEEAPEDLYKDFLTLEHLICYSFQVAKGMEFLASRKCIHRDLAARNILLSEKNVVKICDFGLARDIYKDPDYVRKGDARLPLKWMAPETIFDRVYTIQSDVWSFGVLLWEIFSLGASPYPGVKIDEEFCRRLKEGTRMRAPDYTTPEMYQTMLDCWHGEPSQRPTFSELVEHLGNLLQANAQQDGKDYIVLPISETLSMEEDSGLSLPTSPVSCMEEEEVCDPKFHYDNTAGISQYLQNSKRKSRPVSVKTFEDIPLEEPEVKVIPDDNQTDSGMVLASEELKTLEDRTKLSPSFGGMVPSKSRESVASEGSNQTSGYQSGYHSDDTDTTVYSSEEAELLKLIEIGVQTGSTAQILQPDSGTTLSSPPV
Method: Inhibition of Vascular Endothelial Growth Factor Receptor-2 Kinase Activity
Assay were performed as described for trkA kinase below. The 96-well microtiter plate (FluoroNUNC Maxisorp) was coated with 40 μg/ml recombinant human phospholipase C-γ1/glutathione S-transferase fusion protein. Inhibition studies were performed in 100 μl assay mixtures containing 50 mM HEPES, pH 7.4, 30 μM ATP, 10 mM MnCl2, 0.1% BSA, 2% DMSO, and 1 μM of test compound. The reaction was initiated by adding prephosphorylated recombinant human baculoviral VEGFR2 cyctoplasmic domain. The reaction was allowed to proceed for 15 minutes at 37° C. The detection antibody, eurpium-labeled anti-phosphotyrosine antibody (Wallac #CR04-100), was added at 1:5000 dilution in block buffer (3% BSA in TBST).

[2] = target: T2, recombinant human baculovirus-expressed VEGFR1 cytoplasmic domain (Homo sapiens, UniProt P17948); assay: VEGFR1 kinase inhibition assay (ELISA-based, time-resolved fluorescence); settings: 1 uM compound, 30 μM ATP; for inhibition at 1 µM: read-out: VEGFR-1 kinase % inhibition @ 1 uM
T2 construct: recombinant human baculovirus-expressed VEGFR1 cytoplasmic domain; host or cells: baculovirus expression system
T2 sequence (P17948 781-1338 limits assumed): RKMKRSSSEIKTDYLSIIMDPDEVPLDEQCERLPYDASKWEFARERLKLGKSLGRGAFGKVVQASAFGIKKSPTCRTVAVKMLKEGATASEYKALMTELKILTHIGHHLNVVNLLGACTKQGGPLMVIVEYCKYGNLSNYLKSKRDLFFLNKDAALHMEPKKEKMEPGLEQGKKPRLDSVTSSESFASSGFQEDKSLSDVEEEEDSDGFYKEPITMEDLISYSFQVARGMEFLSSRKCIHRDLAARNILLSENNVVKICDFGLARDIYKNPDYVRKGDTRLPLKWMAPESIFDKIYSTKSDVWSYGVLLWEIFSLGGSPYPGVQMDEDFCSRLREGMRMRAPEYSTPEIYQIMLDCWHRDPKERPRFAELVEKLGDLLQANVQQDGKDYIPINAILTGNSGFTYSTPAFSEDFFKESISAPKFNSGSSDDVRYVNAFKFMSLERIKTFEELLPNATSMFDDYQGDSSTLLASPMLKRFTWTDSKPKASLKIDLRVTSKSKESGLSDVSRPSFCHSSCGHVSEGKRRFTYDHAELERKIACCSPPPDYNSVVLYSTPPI
Method: Inhibition of Vascular Endothelial Growth Factor Receptor-1 Kinase Activity
The VEGFR1 kinase activity assay utilizes an ELISA-based format in a 96-well FluoroNUNC Maxisorp plate with a time-resolved fluorescence readout. The plate was coated with 100 μl/well of substrate solution (recombinant human PLC-γ/GST) at a concentration of 40 μg/ml in Tris buffered saline (TBS). The VEGFR1 activity was assayed in 100-μl assay micture containing 50 mM HEPES (pH 7.4), 30 μM ATP, 10 mM MnCl2, 0.1% BSA, 2% DMSO, and 300 ng/ml prephosphorylated recombinant human baculovirus-expressed VEGFR1 cytoplasmic domain. Compounds were screened for inhibition of the VEGFR1 kinase activity at a concentration of 1 μM. The kinase reaction was allowed to proceed at 37° C. for 15 minutes. The detection antibody, europium-labeled anti-phosphotyrosine antibody (Wallac #CR04-100), was added at 1:5000 dilution in block buffer (3% BSA in TBST). After a 1-hour incubation at 37° C., 100 μl of enhancement solution (Wallac #1244-105) was added and the plate was gently agitated. After 5 min, the fluorescence of the resulting solution was measured using the BMG Fluostar (Model # 403).

[3] = target: T3, baculoviral GST-MLK2KDLZ (Homo sapiens, UniProt Q02779); assay: Mixed Lineage Kinase-2 inhibition assay (Millipore Multiscreen plate, 32P); settings: 1 uM compound, 100 μM ATP; for inhibition at 1 µM: read-out: MLK-2 Kinase % inhibition @ 1 uM
T3 construct: 3 μg/ml of baculoviral GST-MLK2KDLZ; GST (N); host or cells: baculovirus expression system
T3 sequence (Q02779 98-440 limits assumed): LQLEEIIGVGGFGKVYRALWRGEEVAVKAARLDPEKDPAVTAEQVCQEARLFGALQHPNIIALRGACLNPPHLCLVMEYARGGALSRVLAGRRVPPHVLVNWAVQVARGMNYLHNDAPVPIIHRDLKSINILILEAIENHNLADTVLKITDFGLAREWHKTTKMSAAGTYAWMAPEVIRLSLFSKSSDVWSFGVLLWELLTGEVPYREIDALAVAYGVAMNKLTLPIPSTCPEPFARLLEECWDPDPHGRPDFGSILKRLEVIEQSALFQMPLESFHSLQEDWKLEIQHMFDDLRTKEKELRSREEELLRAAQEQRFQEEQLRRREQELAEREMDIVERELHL
Method: Inhibition of Mixed Lineage Kinase-2 Activity
Assays were performed using the Millipore Multiscreen plate format as described for MLK1. Each 50-μl assay mixture contained 20 mM Hepes, pH 7, 1 mM EGTA, 10 mM MgCl2, 1 mM DTT, 25 mM β-glycerophosphate, 100 μM ATP, 0.25 μCi [γ-^32P]ATP, 0.1% BSA, 500 μg/ml myelin basic protein (UBI #13-104), 2% DMSO, various concentrations of test compound, and 3 μg/ml of baculoviral GST-MLK2KDLZ. Samples were incubated for 15 min. at 37° C. The reaction was stopped by adding ice cold 50% TCA and the proteins were allowed to precipitate for 30 min at 4° C. The plates were then washed with ice cold 25% TCA Supermix scintillation cocktail was added, and the plates were allowed to equilibrate for 1-2 hours prior to counting.

| SMILES | VEGFR-2 kinase % inhibition @ 1 uM [1] [%] | VEGFR-1 kinase % inhibition @ 1 uM [2] [%] | MLK-2 Kinase % inhibition @ 1 uM [3] [%] | inhibition at 1 µM [1] [%] | inhibition at 1 µM [2] [%] | inhibition at 1 µM [3] [%] |
| --- | --- | --- | --- | --- | --- | --- |
| COC(=O)c1ccc2c(C=C3C(=O)NN=C3c3ccco3)c[nH]c2c1 [Compound 50] | 44 | 31 | −1 |  |  |  |
| O=C1NN=C(c2ccoc2)C1=Cc1ccc[nH]1 [Compound 12] | 26 | 29 | −7 |  |  |  |
| O=C1NN=C(c2ccco2)C1=Cc1c[nH]c2cccc(OCc3ccccc3)c12 [Compound 44] | 18 | 2 | −3 |  |  |  |
| O=C1NN=C(c2ccoc2)C1=Cc1c[nH]c2ccc(Cl)cc12 [Compound 17] | 48 | 17 | −8 |  |  |  |
| Cc1cc(C)c(C=C2C(=O)NN=C2c2csc(-c3ccccc3)n2)[nH]1 [Compound 40] | 26 | 16 | −8 |  |  |  |
| O=C1NN=C(c2ccco2)C1=Cc1ncc[nH]1 [Compound 54] | 4 | 5 | −48 |  |  |  |
| Cc1oc(-c2ccc(Cl)cc2)cc1C1=NNC(=O)C1=Cc1c[nH]c2ccccc12 [Compound 42] | 28 | 13 | −10 |  |  |  |
| N#CCCn1cc(C=C2C(=O)NN=C2c2ccco2)c2ccccc21 [Compound 67] | 20 | 22 | −1 |  |  |  |
| O=C1NN=C(c2ccoc2)C1=CC=C(c1ccccc1)c1ccccc1 [Compound 4] | 33 | 20 | −10 |  |  |  |
| O=C1NN=C(c2ccco2)C1=Cc1c[nH]c2ccc(Cl)cc12 [Compound 49] | 50 | 32 | 3 |  |  |  |
| Cc1ccc2c(C=C3C(=O)NN=C3c3ccco3)c[nH]c2c1 [Compound 46] | 71 | 41 | 2 |  |  |  |
| Cc1nc[nH]c1C=C1C(=O)NN=C1c1ccco1 [Compound 53] | 34 | 21 | −13 |  |  |  |
| O=C1NN=C(c2ccco2)C1=Cc1cn(Cc2ccccc2)c2ccccc12 [Compound 69] | 5 | 5 | 4 |  |  |  |
| Cn1ccc(C2=NNC(=O)C2=Cc2c[nH]c3ccc(Cl)cc23)c1 [Compound 35] | 19 | 10 | −15 |  |  |  |
| Cn1ccc(C2=NNC(=O)C2=Cc2c[nH]c3cccc(OCc4ccccc4)c23)c1 [Compound 31] | 16 | 10 | 0 |  |  |  |
| O=C1NN=C(c2nccs2)C1=Cc1cn(CCOCc2ccccc2)c2ccccc12 [Compound 72] | 3 | 12 | 3 |  |  |  |

| SMILES | VEGFR-2 kinase % inhibition @ 1 uM [1] [%] | VEGFR-1 kinase % inhibition @ 1 uM [2] [%] | MLK-2 Kinase % inhibition @ 1 uM [3] [%] | inhibition at 1 µM [1] [%] | inhibition at 1 µM [2] [%] | inhibition at 1 µM [3] [%] |
| --- | --- | --- | --- | --- | --- | --- |
| Cc1cc(C)c(C=C2C(=O)NN=C2c2cc3ccccc3o2)[nH]1 [Compound 57, 3-benzo[d]furan-2-yl-4-[(3,5-dimethylpyrrol-2-yl)methylene]-2-pyrazolin-5-one] |  |  |  | 30 | 7 | 5 |
| Cc1[nH]c(C=C2C(=O)NN=C2c2ccoc2)c(Br)c1Br [Compound 8] | 35 | 21 | 0 |  |  |  |
| Cc1cccc2c(C=C3C(=O)NN=C3c3ccn(C)c3)c[nH]c12 [Compound 34] | 32 | 30 | 1 |  |  |  |
| O=C1NN=C(c2ccoc2)C1=Cc1c[nH]c2ccc(OCc3ccccc3)cc12 [Compound 21] | 12 | 0 | −13 |  |  |  |
| Cc1cc(C)c(C=C2C(=O)NN=C2c2cc(C)oc2C)[nH]1 [Compound 36] | 27 | 14 | −18 |  |  |  |
| Cn1ccc(C2=NNC(=O)C2=Cc2c[nH]c3ccc(F)cc23)c1 [Compound 32] | 47 | 48 | −14 |  |  |  |
| Cc1cc(C)c(C=C2C(=O)NN=C2c2ccccn2)[nH]1 [Compound 30] | 68 | 41 | 1 |  |  |  |
| Cn1ccc(C2=NNC(=O)C2=Cc2c[nH]c3ccccc23)c1 [Compound 24] | 32 | 39 | 4 |  |  |  |
| Cc1cc(C)c(C=C2C(=O)NN=C2C2c3ccccc3Oc3ccccc32)[nH]1 [Compound 2] | 21 | 9 | −10 |  |  |  |
| O=C1NN=C(c2ccco2)C1=Cc1c[nH]c2ccccc12 [Compound 29, 3-(2-furyl)-4-(indol-3-ylmethylene)-2-pyrazolin-5-one] |  |  |  | 68 | 53 | 2 |
| O=C1NN=C(c2nccs2)C1=Cc1c[nH]c2ccccc12 [Compound 25, 4-(indol-3-ylmethylene)-3-(1,3-thiazol-2-yl)-2-pyrazolin-5-one] |  |  |  | 64 | 66 | -4 |
| Cc1cc(C)c(C=C2C(=O)NN=C2c2cccnc2)[nH]1 [Compound 10] | 64 | 41 | −9 |  |  |  |
| Cn1cc(C=C2C(=O)NN=C2c2nccs2)c2ccccc21 [Compound 60] |  | 63 | 9 |  |  |  |
| Cc1cc(C)c(C=C2C(=O)NN=C2c2nccs2)[nH]1 [Compound 26, 4-[(3,5-dimethylpyrrol-2-yl)methylene]-3-(1,3-thiazol-2-yl)-2 pyrazolin-5-one] |  |  |  |  | 64 | -7 |
| Cc1cc(C)c(C=C2C(=O)NN=C2c2ccoc2)[nH]1 [Compound 1] |  | 35 | 7 |  |  |  |
| Cc1cc(C)c(C=C2C(=O)NN=C2c2cnccn2)[nH]1 [Compound 74, 4-[(3,5-dimethylpyrrol-2-yl)methylene]-3-pyrazin-2-yl-2-pyrazolin-5-one] |  |  |  |  | 74 | 17 |
